Data set [1] deals with T1, Glucose-dependent insulinotropic receptor (Homo sapiens) (UniProt Q8TDV5).
T1 sequence (whole entry): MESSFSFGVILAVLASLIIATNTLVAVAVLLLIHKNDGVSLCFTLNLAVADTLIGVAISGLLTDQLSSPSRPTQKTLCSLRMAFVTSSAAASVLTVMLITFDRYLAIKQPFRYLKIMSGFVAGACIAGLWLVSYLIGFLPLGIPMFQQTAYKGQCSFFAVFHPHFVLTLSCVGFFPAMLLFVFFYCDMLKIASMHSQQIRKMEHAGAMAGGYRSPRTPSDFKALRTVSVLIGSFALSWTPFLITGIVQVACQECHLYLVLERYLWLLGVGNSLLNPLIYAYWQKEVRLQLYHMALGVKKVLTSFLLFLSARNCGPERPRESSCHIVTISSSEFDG
Kind of data set: Agonist activity at human recombinant GPR119 expressed in HEK293 cells co-expressing pCRE-Luc at 10 uM after 6 hrs by cAMP reporter assay relative to 2-(2-(4-bromophenyl)-6-methylpyrimidin-4-ylamino)ethanol. The format is functional, cell-based.

Data set [2] deals with T1, Glucose-dependent insulinotropic receptor (Homo sapiens). Kind of data set: Agonist activity at human recombinant GPR119 expressed in HEK293 cells co-expressing pCRE-Luc assessed as concentration required to showing equipotent efficacy to 2-(2-(4-bromophenyl)-6-methylpyrimidin-4-ylamino)ethanol after 6 hrs by cAMP reporter assay. The format is functional, cell-based. For orientation: Reporter assays use an easily measured gene product as a stand-in for the process of interest.

Data set [3] relates to Mus musculus. As to the kind of experiment: Antihyperglycemic activity in po dosed ICR mouse assessed as reduction of blood glucose level after 30 mins by oral glucose tolerance test. In kind it is functional. The settings on record: 0.5 h, read-out: MED.
The nature of data set [4]: Solubility of compound at pH 6.8 after 20 hrs by precipitation method. The format is physicochemical. The settings on record: buffer.
The test system of data set [5] is Mus musculus. As to the kind of experiment: Antihyperglycemic activity in ICR mouse assessed as reduction of blood glucose level at 1 mg/kg, po after 30 mins by oral glucose tolerance test. Also on record: scale not given: the % may be the effect or the level left. In kind it is functional.
The test system of data set [6] is Mus musculus. As to the kind of experiment: Antihyperglycemic activity in ICR mouse assessed as reduction of blood glucose level at 3 mg/kg, po after 30 mins by oral glucose tolerance test. The format is functional. More on the design: scale not given: the % may be the effect or the level left.
The subject of data set [7] is Mus musculus. Kind of data set: Antihyperglycemic activity in ICR mouse assessed as reduction of blood glucose level at 0.1 mg/kg, po after 30 mins by oral glucose tolerance test. Also on record: scale not given: the % may be the effect or the level left. In kind it is functional.
Data set [8] in a line: Inhibition of cytochrome P450 up to 50 uM. The format is ADME.
Data set [9] is described as follows: Clearance in human liver microsomes. In kind it is ADME, Microsome. The settings on record: read-out: CLH. (Microsomes from liver hold many membrane-bound enzymes, among them those of drug oxidation.)
Data set [10] has as its system Mus musculus. Kind of data set: Antihyperglycemic activity in ICR mouse assessed as reduction of blood glucose level at 0.3 mg/kg, po after 30 mins by oral glucose tolerance test. The format is functional. More on the design: scale not given: the % may be the effect or the level left.

The solubility (kinetic) is the concentration staying in solution when a stock, usually in DMSO, is diluted into the medium.

Values after ≈ are worked out from the molar mass of the structure shown.

In the case of `Fc1cc(-c2nc3c(c(N4CCOCC4)n2)CCS3)c(F)cc1Cl`, in [1], the Intrinsic activity was found to be 258%. Moreover, the EC in data set [2] was 970 nM.

On to `O=S1(=O)Cc2nc(-c3cc(F)c(Cl)cc3F)nc(N3CCC(CO)CC3)c2C1`, for which the Intrinsic activity in data set [1] was 501%. Further, the minimal effective dose with Mus musculus [3] stood at 0.3 mg/kg. In data set [4], the solubility (kinetic) at 20 h is 16 µM (≈ 6.88 µg/mL). The EC in [2] was determined as 3.9 nM. Moreover, in the data set with Mus musculus [5], the Activity is given as 29%.

As to `Fc1cc(-c2nc3c(c(N4CCOCC4)n2)COC3)c(F)cc1Cl`, in data set [1], the Intrinsic activity was 205%. Also, the EC in data set [2] was found to be 4100 nM.

`Fc1cc(-c2nc3c(c(N4CCOCC4)n2)SCC3)c(F)cc1Cl`: in data set [1], the Intrinsic activity came out at 426%. Moreover, the EC in data set [2] worked out at 57 nM.

As for `CNC(=O)C1CCN(c2nc(-c3cc(F)c(Cl)cc3F)nc3c2CS(=O)(=O)C3)CC1`, in [1], the Intrinsic activity is 457%. Further, in the data set with Mus musculus [3], the minimal effective dose was 3 mg/kg. For the same compound, in data set [4], the kinetic solubility at 20 h was found to be 11 µM (≈ 5.03 µg/mL). Besides, the EC in data set [2] worked out at 51 nM.

For `O=C(O)C1CCN(c2nc(-c3cc(F)c(Cl)cc3F)nc3c2CS(=O)(=O)C3)CC1`, in data set [1], the Intrinsic activity turned out to be 528%. Moreover, the minimal effective dose in the data set on Mus musculus [3] is greater than 3 mg/kg. The Activity in the data set with Mus musculus [6] was determined as 15%. Besides, the EC in data set [2] was 560 nM.

On to `O=S1(=O)Cc2nc(-c3cc(F)c(Cl)cc3F)nc(N3CCC(CCO)CC3)c2C1`, for which, in data set [1], the Intrinsic activity amounted to 506%. Also, the minimal effective dose in the data set on Mus musculus [3] came out at 1 mg/kg. For the same compound, the kinetic solubility at 20 h in [4] worked out at 23 µM (≈ 10.2 µg/mL). Moreover, in data set [2], the EC was determined as 2.8 nM. Moreover, the Activity in the data set with Mus musculus [5] is 29%.

Take `O=S1(=O)Cc2nc(-c3cc(F)c(Cl)cc3F)nc(N3CCOCC3)c2C1`: the Intrinsic activity in data set [1] is 668%. Moreover, the minimal effective dose in the data set on Mus musculus [3] was 1 mg/kg. The solubility (kinetic) at 20 h in data set [4] is less than 1 µM. For the same compound, the EC in data set [2] came to 28 nM. The Activity with Mus musculus [5] is listed as 30%.

For `NC(=O)CC1CCN(c2nc(-c3cc(F)c(Cl)cc3F)nc3c2CS(=O)(=O)C3)CC1`, the figures for the Activity with Mus musculus [7] and in the data set with Mus musculus [5] were 27% and 35%, respectively. Besides, in data set [8], the “inhibition (INH)” value is “Not Active”. Moreover, the Intrinsic activity in data set [1] was determined as 483%. Besides, in the data set with Mus musculus [3], the minimal effective dose was 0.1 mg/kg. The compound further returned a kinetic solubility at 20 h in [4] of 15 µM (≈ 6.85 µg/mL). Further, the EC in data set [2] is 8.3 nM. Moreover, the CLint scaled in data set [9] came out at 58 mL/min/kg.

Turning to `CN(C)C(=O)C1CCN(c2nc(-c3cc(F)c(Cl)cc3F)nc3c2CS(=O)(=O)C3)CC1`, in data set [1], the Intrinsic activity was 292%. The minimal effective dose with Mus musculus [3] was found to be 1 mg/kg. Moreover, the kinetic solubility at 20 h in [4] was greater than 100 µM. Further, in data set [2], the EC came to 350 nM. Moreover, the Activity with Mus musculus [5] turned out to be 32%.

In the case of `NC(=O)C1CCN(c2nc(-c3cc(F)c(Cl)cc3F)nc3c2CS(=O)(=O)C3)CC1`, the Intrinsic activity in data set [1] was 294%. Further, in the data set with Mus musculus [3], the minimal effective dose was found to be 3 mg/kg. Further, in [4], the solubility (kinetic) at 20 h came to 40 µM (≈ 17.7 µg/mL). Besides, in data set [2], the EC is 21 nM. Further, in the data set with Mus musculus [5], the Activity is on record as 12%.

For `O=S1(=O)Cc2nc(-c3cc(F)c(Cl)cc3F)nc(N3CCC(O)CC3)c2C1`, the Intrinsic activity in data set [1] was 575%. In the data set on Mus musculus [3], the minimal effective dose was found to be 1 mg/kg. The compound also displayed a solubility (kinetic) at 20 h in data set [4] of 91 µM (≈ 37.8 µg/mL). Besides, the EC in data set [2] is 14 nM. In addition, the Activity with Mus musculus [5] was 32%.

For the compound `Fc1cc(-c2nc3c(c(N4CCOCC4)n2)CSC3)c(F)cc1Cl`, in data set [1], the Intrinsic activity came out at 467%. The EC in [2] amounted to 150 nM.

In the case of `Fc1cc(-c2nc3c(c(N4CCOCC4)n2)CCC3)c(F)cc1Cl`, the Intrinsic activity in data set [1] is 405%. Besides, the EC in data set [2] was 350 nM.

On to `NC(=O)CCC1CCN(c2nc(-c3cc(F)c(Cl)cc3F)nc3c2CS(=O)(=O)C3)CC1`, for which the Intrinsic activity in data set [1] worked out at 627%. For the same compound, the minimal effective dose with Mus musculus [3] turned out to be 0.3 mg/kg. This compound yielded a solubility (kinetic) at 20 h in data set [4] of 8 µM (≈ 3.77 µg/mL). In addition, in [2], the EC was 18 nM. For the same compound, the Activity with Mus musculus [10] is 30%.

Turning to `Fc1cc(-c2nc3c(c(N4CCOCC4)n2)CCCC3)c(F)cc1Cl`, the Intrinsic activity in data set [1] was 313%. Further, in data set [2], the EC turned out to be 770 nM.

With `NC(=O)CN1CCN(c2nc(-c3cc(F)c(Cl)cc3F)nc3c2CS(=O)(=O)C3)CC1`, the Intrinsic activity in data set [1] turned out to be 737%. Further, the minimal effective dose in the data set on Mus musculus [3] worked out at 3 mg/kg. The compound further had a kinetic solubility at 20 h in data set [4] greater than 100 µM. In addition, the EC in [2] is 44 nM. For the same compound, in the data set with Mus musculus [5], the Activity turned out to be 17%.
